Here are results for five molecules from US9034863B2, “Compositions and methods for inhibiting entry of a hepatic virus” (The Board of Trustees of the University of Illinois, priority 2008, dated 2015).

Common to all, as to type: cell-based, Hepatitis C virus (HCV)
For one assay, the system named is HCVcc. Kind of assay: HCV foci reduction assay, acute HCVcc infection of Huh7 cells. The settings on record: added pre-, co- or post-infection.
The test system of assay [1] is HCV genotype 2a subgenomic replicon. Kind of assay: HCV sg2a replicon RNA replication in Huh7 cells, RT-qPCR. The conditions noted are these: 72 hours post-treatment. The text has this:
Huh7 cells, also known as Huh7/scr cells, are well-known in the art (Zhong, et al. (2005) Proc. Natl. Acad. Sci. USA 102, 9294-99; Gastaminza, et al. (2006) J. Virol. 80:11074-81; Zhong, et al. (2006) J. Virol. 80:11082-93; Sainz et al. (2009) PLoS ONE 4:e6561). […] The HCV sg2a replicon was established as previously described (Uprichard, et al. (2006) Virol. J. 3:89). Briefly the HCV genotype 2a subgenomic replicon RNA (psgJFH1; Kato, et al. (2003) Gastroenterology 125:1808-17) was XbaI linearized, in vitro transcribed using […] T7 (Ambion, Austin, Tex.) and transfected into cells using a modified electroporation protocol (Krieger, et al. (2001) J. Virol. 75(10):4614-24). All cells were cultured in complete Dulbecco's modified Eagle's medium (cDMEM) (Hyclone, Logan, Utah) supplemented with 10% fetal bovine serum (FBS) (Hyclone), 100 units/ml penicillin, […] streptomycin, and 2 mM L-glutamine (Gibco Invitrogen, Carlsbad, Calif.) and 500 μg/ml geneticin ((Invitrogen) for HCV replicon cells only).
(§1) Total cellular RNA was purified using an ABI PRISM™ 6100 Nucleic Acid PrepStation (Applied Biosystems), as per the manufacturer's instructions. […] HCV JFH-1 and human GAPDH RNA transcript levels were determined relative to a standard curve derived from serial dilutions of plasmid containing the JFH-1 HCV cDNA or the human GAPDH coding sequence, respectively. […]
In general terms: A replicon is a self-replicating genome or part of one, used to study replication in cells.

Assay [2] has as its system HCV genotype 1b subgenomic replicon. Kind of assay: HCV sg1b replicon RNA replication in Huh7 cells, RT-qPCR. The settings on record: 72 hours post-treatment.
For another assay, the system named is HCV-JFH-1. The assay is described as follows: Chronic HCV-JFH-1 infection of Huh7-1 cells, inhibitor combinations, RT-qPCR 24-96 h (FIG. 3-5). The settings on record: for reduction of HCV levels (FIG. 3): PI 200 nM; for reduction of HCV levels (FIG. 3) / decrease in intracellular HCV load (FIG. 4B): IFN-α 100 U/ml; for decrease in intracellular HCV load (FIG. 4B): ferristatin 50 μM. The protocol:
RT-qPCR analysis of intracellular HCV RNA levels in Huh7 cultures mock-treated, treated with ezetimibe (30 μM), PI (200 nM), IFN-α (100 U/ml), or indicated combinations thereof (n=3). Data presented are representative of multiple independent experiments.
FIG. 4A, Chronically infected Huh7-1 cell cultures (n=3) treated with ezetimibe (E), naringenin (N), interferon α (I), or combinations thereof, were harvested at 24, 48, 72 or 96 hours post-treatment, intracellular HCV levels were quantified by RT-qPCR, and are presented as HCV copies/μg RNA. FIG. 4B, Chronically infected Huh7-1 cell cultures (n=3) treated with ezetimibe (E), ferristatin (T), interferon α (I), or combinations thereof, were harvested at 24, 48, 72 or 96 hours post-treatment, intracellular HCV levels were quantified by RT-qPCR, and are presented as HCV copies/μg RNA.
Shown are the results of RT-qPCR analysis of intracellular HCV RNA levels in Huh7 cultures mock-treated, treated with ezetimibe (30 μM), polymerase inhibitor, RG7128 (1 μM), or a combination thereof (n=3).
For experiments analyzing the activity of ezetimibe in combination with a protease inhibitor, Huh7-1 cells were infected with HCV-JFH-1 and allowed to reach steady state levels of infection. The HCV-infected cells were seeded in a 96-well plate and treated with the following: medium alone, 30 μM ezetimibe, 200 nM ITMN5537, 100 μ/ml IFN-α, and combinations of the above drugs at the specified concentrations. Medium and drugs were replaced every 24 hours. Triplicate wells were harvested at 24, 48, 72 or 96 hours post-treatment, in 200 μl/well of 1×ABI lysis buffer and stored at −80° C. until RNA extraction.
Therefore, the therapeutic potential of an IFN-free antiviral cocktail was also investigated, using ezetimibe in combination with other direct acting inhibitors of HCV amplification, specifically an inhibitor of the HCV NS3/4A protease (ITMN 5537; Intermune, Brisbane, Calif.). Huh7-1 cells were infected with HCV-JFH-1 and allowed to reach steady state levels of infection. Cells were monotreated with protease inhibitor (PI) or ezetimibe or IFN alone or treated with combinations of PI+ezetimibe or PI+IFN or IFN+ezetimibe or a combination of all three inhibitors. Samples were harvested at 24, 48, 72 or 96 hours post-treatment, the intracellular RNA was extracted and RT-qPCR performed to quantify HCV copies.
Thus, parallel cultures of chronically infected Huh7-1 cells were established and subsequently treated with ezetimibe, naringenin or IFN-α, either alone or in combination. Treatments were replenished every 24 hours. Triplicate cultures of each treatment condition were harvested at 24, 48, 72 or 96 hours post-treatment and intracellular HCV levels were quantified by RT-qPCR (FIG. 4A). […] Thus, no evidence of synergy was observed when IFN-α was combined with an egress inhibitor that only blocks cell-free spread.
As an alternative method of determining the therapeutic importance of inhibiting HCV cell-to-cell spread, an inhibitor to TfR1 was used. TfR1 has also been identified as another host cell factor that is involved in cell-free entry of HCV into cells, but is not required for cell-to-cell-mediated HCV entry. Thus, unlike ezetimibe which inhibits both cell-free and cell-to-cell HCV spread, the TfR1 inhibitor, ferristatin, only blocks cell-free virus spread. Again, chronically infected Huh7-1 cell cultures were established and treated with ezetimibe (30 μM), ferristatin (50 μM), or IFN-α (100 U/ml), either alone or in combination and treatments were replenished every 24 hours. Intracellular HCV copies were quantified from triplicate cultures by RT-qPCR at 24, 48, 72 or 96 hours post-treatment (FIG. 4B).
Huh7-1 cells were infected with HCV-JFH-1 and allowed to reach steady state levels of infection. Cells were monotreated with HCV polymerase inhibitor RG7128 (1 μM) or ezetimibe (30 μM) alone or treated with a combination of RG7128 and ezetimibe. […]
For orientation: In qPCR the cycle at which signal appears reflects the starting amount.

The next assay deals with HCVcc JFH-1. The assay is described as follows: Chronic HCVcc infection in growing Huh7 cells, long-term treatment, RT-qPCR (FIG. 2). The procedure: Cultures of growing Huh7 cells were inoculated with HCVcc JFH-1 at an MOT of 0.01 FFU/cell. Infected cultures were maintained for an additional 10 days to allow HCV RNA to reach steady-state levels. FIG. 2A, Cultures were mock treated, treated with ezetimibe alone (30 μM), IFN-α (100 U/ml) alone, or ezetimibe (30 μM) plus IFN-α (100 U/ml) in combination. Treatments were maintained as cultures were passaged. FIG. 2B, After 70 days IFN-α or combination ezetimibe plus IFN-α treatment, treatment was either continued (open shapes) or discontinued (filled shapes). […] Results are graphed as means±s.e.m. for triplicate samples. The data presented are representative of two independent experiments.
For experiments in growing cells, Huh7 cells seeded at 1×10^6 cells in a T75 cell culture flask (Corning) were infected with JFH-1 HCVcc at a MOI of 0.01 FFU/cell and subsequently cultured for 10 days to allow HCV RNA to reach steady-state levels. On day 10 post-infection, cells were split 1:4 and re-plated into T25 culture flasks (Corning). Twenty four hours post seeding, individual flasks were mock-treated with cDMEM or treated with cDMEM containing IFN-α (100 U/ml), ezetimibe (30 μM) or a combination of both IFN-α (100 U/ml) and ezetimibe (30 μM). Throughout the course of the experiment, fresh media with treatments was replenished every two days and cells were trypsinized just before reaching confluence and re-plated at a dilution of 1:3 to maintain active cell growth. […]
as §1
To confirm HCV clearance, drug treatments were subsequently discontinued on day 70 and HCV RNA levels were monitored for an additional 30 days.

Take `CC[C@H](C)C(=O)O[C@H]1C[C@@H](C)C=C2C=C[C@H](C)[C@H](CC[C@@H]3C[C@@H](O)CC(=O)O3)[C@H]21` [Lovastatin]: the “inhibition of HCVcc foci formation” value in the assay with HCVcc is on record as “had no affect”. Besides, the “sg2a HCV RNA levels” value in assay [1] is given as “had no affect”. Moreover, in assay [2], the “reduction of sg1b RNA levels” value is recorded as 22 fold.

Consider `CC(C)(C)OC(=O)N[C@H]1CCCCC/C=C\[C@@H]2C[C@@]2(C(=O)NS(=O)(=O)C2(C)CC2)NC(=O)[C@@H]2C[C@@H](OC(=O)N3Cc4cccc(F)c4C3)CN2C1=O` [PI], for which, in the assay on HCV-JFH-1 (ezetimibe 30 μM), the “reduction of HCV levels (FIG. 3)” value is on record as “less than a log”.

As for `CC(C)C(=O)OC[C@H]1O[C@@H](n2ccc(N)nc2=O)[C@](C)(F)[C@@H]1OC(=O)C(C)C` [RG7128], the “reduction of HCV levels (FIG. 5)” value in the assay on HCV-JFH-1 (RG7128 1 μM, ezetimibe 30 μM, normalized to Mock) is given as “less than a log”.

Turning to `Cc1[n-]n(-c2ccc(S(=O)(=O)O)cc2)c(=O)c1N=Nc1ccc(-c2ccc(N=Nc3ccc4c(S(=O)(=O)O)cc(S(=O)(=O)O)c(N)c4c3[O-])c([O-])c2)cc1[O-].[Cu+2].[Cu+2]` [ferristatin], in the assay on HCV-JFH-1 (ezetimibe 30 μM), the “decrease in intracellular HCV load (FIG. 4B)” value is “neither ezetimibe nor ferristatin alone reduced intracellular HCV load”.

For the molecule IFN-α, in the assay on HCVcc JFH-1 (by day 32 post-treatment vs mock, IFN-α 100 U/ml, ezetimibe 30 μM), the “decrease in intracellular HCV RNA levels” value is given as around 2 logs. For the same molecule, in the assay on HCVcc JFH-1 (discontinued on day 70, monitored 30 days), the “rebound in HCV RNA after treatment discontinued” value was “immediate rebound”. Moreover, in the assay on HCV-JFH-1 (ezetimibe 30 μM), the “reduction of HCV levels (FIG. 3)” value is “a log” and the “decrease in intracellular HCV load (FIG. 4B)” value is reported as “a log decrease”. For the same molecule, the “reduction of HCV copies (FIG. 4A)” value in the assay with HCV-JFH-1 (ezetimibe, naringenin, IFN-α alone or in combination) is given as “a log decrease”.
